Assay results as given in ChEMBL document CHEMBL1201862, “PubChem BioAssay data set” (2004).
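Five compound concentrations were applied to cells in 96-well plates for 48 hours; endpoints were derived by simple linear interpolation of the resulting dose-response curve. GI50 marks 50% less growth.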 Active and inactive are the calls of the source. Cut-off read from the data, not from the text of the source: active = GI50 up to about 1.1 µM and inactive = higher.

Legend:
Experiment in all cases: growth of human tumour cells (NCI), 48 h
786-0 = tested on: 786-0
COLO 205 = tested on: COLO 205
EKVX = tested on: EKVX
HCC 2998 = tested on: HCC 2998
HCT-15 = tested on: HCT-15
HL-60 = tested on: HL-60
HOP-92 = tested on: HOP-92
NCI-H226 = tested on: NCI-H226
NCI-H522 = tested on: NCI-H522
OVCAR-4 = tested on: OVCAR-4
SNB-75 = tested on: SNB-75
SW-620 = tested on: SW-620
U-251 = tested on: U-251
UACC-257 = tested on: UACC-257
DU-145 = tested on: DU-145
MDA-MB-435 = tested on: MDA-MB-435
OVCAR-5 = tested on: OVCAR-5
T47D = tested on: T47D
BT-549 = tested on: BT-549

Row | SMILES | GI50 (786-0) | GI50 (COLO 205) | GI50 (EKVX) | GI50 (HCC 2998) | GI50 (HCT-15) | GI50 (HL-60) | GI50 (HOP-92) | GI50 (NCI-H226) | GI50 (NCI-H522) | GI50 (OVCAR-4) | GI50 (SNB-75) | GI50 (SW-620) | GI50 (U-251) | GI50 (UACC-257) | GI50 (DU-145) | GI50 (MDA-MB-435) | GI50 (OVCAR-5) | GI50 (T47D) | GI50 (BT-549)
1 | COc1ccc(OC(=O)CC2Cc3cc(OC)c(OC)c(OC)c3-c3ccc(SC)c(=O)cc32)cc1 (configuration not stated) | 0.0551 µM (active) | 0.403 µM (active) | > 28.7 µM (inactive) | 0.0568 µM (active) | 0.467 µM | 0.0893 µM (active) | 0.467 µM (active) | 0.216 µM (active) | 0.2 µM (active) | 11.7 µM (inactive) | 2.52 µM (inactive) | 0.0783 µM (active) | 0.224 µM (active) | 0.273 µM (active) | – | – | – | – | –
2 | Cc1nc([N+](=O)[O-])cn1CC(=N)N | > 100 µM (inactive) | > 100 µM (inactive) | > 100 µM (inactive) | > 100 µM (inactive) | > 100 µM | > 100 µM (inactive) | – | > 100 µM (inactive) | – | > 100 µM (inactive) | 20.8 µM (inactive) | > 100 µM (inactive) | > 100 µM (inactive) | > 100 µM (inactive) | – | – | – | – | –
3 | NC(=O)CCC(NC(=O)c1cccc2c(=O)c3ccccc3[nH]c12)C(=O)O (configuration not stated) | > 100 µM (inactive) | > 100 µM (inactive) | > 100 µM (inactive) | – | > 100 µM | > 100 µM (inactive) | 77.3 µM (inactive) | > 100 µM (inactive) | > 100 µM (inactive) | > 100 µM (inactive) | > 100 µM (inactive) | > 100 µM (inactive) | > 100 µM (inactive) | – | > 100 µM (inactive) | > 100 µM (inactive) | > 100 µM (inactive) | – | –
4 | O/N=C(\CC(O)(C(F)(F)F)C(F)(F)F)c1cccc(Cl)c1 | 35.5 µM (inactive) | 35.6 µM (inactive) | 22.2 µM (inactive) | 60 µM (inactive) | 32.4 µM | 23.5 µM (inactive) | 23.1 µM (inactive) | 20.8 µM (inactive) | 30.5 µM (inactive) | 34.5 µM (inactive) | 18.2 µM (inactive) | 37.8 µM (inactive) | 20.2 µM (inactive) | 35.6 µM (inactive) | 40.6 µM (inactive) | 25.8 µM (inactive) | 47.9 µM (inactive) | 32.7 µM (inactive) | –
5 | Cc1ccc(/N=N/c2c(O)c(C(=O)O)cc3ccccc23)cc1C | > 100 µM (inactive) | > 100 µM (inactive) | > 100 µM (inactive) | > 100 µM (inactive) | > 100 µM | 46.3 µM (inactive) | > 100 µM (inactive) | > 100 µM (inactive) | > 100 µM (inactive) | > 100 µM (inactive) | > 100 µM (inactive) | > 100 µM (inactive) | 80.7 µM (inactive) | > 100 µM (inactive) | – | > 100 µM (inactive) | > 100 µM (inactive) | – | > 100 µM (inactive)
6 | CC(=O)[O-].[O-]c1c(Cl)cc(Cl)cc1/C=N/Nc1ccccn1.[Zn+2] | 1.59 µM (inactive) | 15.2 µM (inactive) | 2.18 µM (inactive) | 9.86 µM (inactive) | 0.403 µM | 0.234 µM (active) | 0.316 µM (active) | > 100 µM (inactive) | 0.41 µM (active) | – | 4.99 µM (inactive) | 1.74 µM (inactive) | 3.12 µM (inactive) | 0.418 µM (active) | – | – | 2 µM (inactive) | – | –
7 | CCOC(=S)SSSC(=S)OCC | 15.2 µM (inactive) | 55 µM (inactive) | 48.5 µM (inactive) | 68.4 µM (inactive) | 19.5 µM | 76.6 µM (inactive) | > 100 µM (inactive) | 82.6 µM (inactive) | – | – | 28.2 µM (inactive) | 32.5 µM (inactive) | 31.6 µM (inactive) | 50.5 µM (inactive) | 21 µM (inactive) | 54.3 µM (inactive) | 28.6 µM (inactive) | 4.22 µM (inactive) | –
8 | Cc1nc2ccc(F)cc2c2c1CCN2c1ccc(Cl)cc1 | 7.66 µM (inactive) | 6.71 µM (inactive) | – | 13.7 µM (inactive) | 13.1 µM | 2.01 µM (inactive) | 2.69 µM (inactive) | 9.38 µM (inactive) | 6.78 µM (inactive) | 13.4 µM (inactive) | 39.6 µM (inactive) | 11.3 µM (inactive) | 9.1 µM (inactive) | 3.51 µM (inactive) | 29.4 µM (inactive) | 6.64 µM (inactive) | 33.9 µM (inactive) | – | 19.5 µM (inactive)
9 | C[C@H]1C(=O)O[C@@H]1[C@H]1COC(C)(C)O1 | – | – | > 100 µM (inactive) | > 100 µM (inactive) | > 100 µM | 0.769 µM (active) | > 100 µM (inactive) | > 100 µM (inactive) | – | > 100 µM (inactive) | 82 µM (inactive) | > 100 µM (inactive) | > 100 µM (inactive) | > 100 µM (inactive) | – | > 100 µM (inactive) | > 100 µM (inactive) | – | > 100 µM (inactive)
